This experiment deals with Sigma 2 receptor. Nature of the experiment: Inhibition of [3H]-DTG binding to Sigma opioid receptor type 2.

Structures are written as SMILES.

What is called Ki is the equilibrium dissociation constant of an inhibitor or competing ligand from its target. A lower Ki goes with a stronger hold on the target. Consider `CC1(C)C2CC[C@@]1(C)CN(CC1CCCCC1)C2`, for which the Ki came out at 3.54 nM.
Regarding `CC1(C)C2CC[C@]1(C)CN(CCC1CCCCCC1)C2`, the Ki came out at 0.25 nM.
`CC1(C)C2CC[C@]1(C)CN(C1CCCCC1)C2`: the affinity corresponds to a Ki of 1.1 nM.
In turn, `CC1(C)C2CC[C@@]1(C)CN(CCC1CCCCC1)C2` showed an inhibition constant Ki of 0.23 nM.
For `C=CCN1CC[C@@]2(C)c3cc(O)ccc3C[C@H]1[C@H]2C` (racemic), the inhibitory constant (Ki) amounted to 14200 nM.
Next, `CC1(C)C2CC[C@]1(C)CN(CCC1CCCCCCC1)C2`: 0.33 nM.
Next, `CC1(C)C2CC[C@]1(C)CN(CCCCC1CCCCC1)C2`: 6.79 nM.
The value for `CC1(C)C2CC[C@]1(C)CN(CCCC1CCCCC1)C2` was 0.56 nM; that for `CC1(C)C2CC[C@]1(C)CN(CCC1CCCCC1)C2` was 0.28 nM.
For `CC1(C)C2CC[C@]1(C)CN(CC1CCCCC1)C2`, the affinity, expressed as Ki, was 3.14 nM.
Next, `CC1(C)C2CC[C@]1(C)CN(CCC1CCCC1)C2`: 0.7 nM.
`CC1(C)C2CC[C@]1(C)CN(CCC1C3CC4CC(C3)CC1C4)C2` (some centres not stated) displayed a Ki of 0.77 nM.

These data come from ChEMBL document CHEMBL1130524, “An aromatic moiety is not essential for pharmacophore binding to sigma binding sites: Synthesis of N-alkylazacycloheptane derivatives as potent sigma ligands” (Bioorg Med Chem Lett, 1997).
